Assay results from patent publication US12728111B2, “Electrophilic compounds and electrophilic prodrugs for treating aneurysm” (University of Pittsburgh—Of the Commonwealth System of …, priority 2020, dated 2026).

Key:
[1] = biological target: T1, EPRAP/p105 interaction (Homo sapiens, UniProt P19838+Q9BSK4); test: Co-IP of HA-tagged EPRAP (FEM1A) and p105; type: cell-based; settings: up to 5 μM; cells overexpressing HA-tagged EPRAP (FEM1A) and p105
T1 construct: Addgene (p105 plasmid) #HG21487-NY; plasmid #23288
T1 sequence (Q9BSK4 1-669): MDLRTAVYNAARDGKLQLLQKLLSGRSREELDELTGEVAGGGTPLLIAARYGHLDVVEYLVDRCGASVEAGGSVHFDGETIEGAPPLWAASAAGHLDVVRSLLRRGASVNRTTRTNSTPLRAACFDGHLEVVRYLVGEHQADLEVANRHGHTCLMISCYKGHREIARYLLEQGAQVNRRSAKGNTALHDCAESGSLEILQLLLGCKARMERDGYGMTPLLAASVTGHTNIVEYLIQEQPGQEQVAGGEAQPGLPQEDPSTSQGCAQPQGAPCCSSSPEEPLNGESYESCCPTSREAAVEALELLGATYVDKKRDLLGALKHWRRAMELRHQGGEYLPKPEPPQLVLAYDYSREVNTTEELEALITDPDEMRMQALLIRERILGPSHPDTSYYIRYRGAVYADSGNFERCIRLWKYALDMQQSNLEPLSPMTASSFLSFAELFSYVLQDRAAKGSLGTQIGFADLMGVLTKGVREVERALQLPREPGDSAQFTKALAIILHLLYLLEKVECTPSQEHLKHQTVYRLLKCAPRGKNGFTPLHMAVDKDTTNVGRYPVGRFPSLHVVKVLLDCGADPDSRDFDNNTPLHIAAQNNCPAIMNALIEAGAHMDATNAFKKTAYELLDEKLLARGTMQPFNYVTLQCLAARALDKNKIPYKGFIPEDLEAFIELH
T1 sequence (P19838 1-968): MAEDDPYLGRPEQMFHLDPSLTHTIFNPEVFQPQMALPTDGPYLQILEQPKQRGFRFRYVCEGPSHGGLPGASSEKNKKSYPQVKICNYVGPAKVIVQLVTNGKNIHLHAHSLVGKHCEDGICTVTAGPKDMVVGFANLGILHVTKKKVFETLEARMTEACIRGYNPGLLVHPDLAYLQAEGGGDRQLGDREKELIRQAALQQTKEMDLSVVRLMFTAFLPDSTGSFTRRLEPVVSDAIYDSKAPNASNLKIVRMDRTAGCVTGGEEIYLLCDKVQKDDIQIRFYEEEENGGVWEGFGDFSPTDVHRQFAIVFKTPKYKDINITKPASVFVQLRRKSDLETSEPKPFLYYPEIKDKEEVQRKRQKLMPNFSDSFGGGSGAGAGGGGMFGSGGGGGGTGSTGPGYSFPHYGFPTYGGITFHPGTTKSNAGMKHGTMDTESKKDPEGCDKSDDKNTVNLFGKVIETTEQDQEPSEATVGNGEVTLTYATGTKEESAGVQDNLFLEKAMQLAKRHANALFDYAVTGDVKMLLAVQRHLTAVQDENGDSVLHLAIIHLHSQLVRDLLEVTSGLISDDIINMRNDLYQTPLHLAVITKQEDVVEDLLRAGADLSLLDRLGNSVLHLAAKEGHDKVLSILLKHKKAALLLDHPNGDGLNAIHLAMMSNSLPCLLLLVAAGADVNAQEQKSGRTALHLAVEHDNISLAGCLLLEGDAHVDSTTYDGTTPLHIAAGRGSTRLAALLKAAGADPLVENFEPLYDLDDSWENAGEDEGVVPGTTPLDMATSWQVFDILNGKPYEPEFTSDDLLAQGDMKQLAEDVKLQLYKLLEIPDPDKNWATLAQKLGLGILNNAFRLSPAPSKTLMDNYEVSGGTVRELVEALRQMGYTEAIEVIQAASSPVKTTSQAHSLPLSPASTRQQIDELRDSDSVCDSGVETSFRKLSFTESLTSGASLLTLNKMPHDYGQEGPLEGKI
From the text: Nuclear/cytoplasm protein extraction, co-Immunoprecipitation and immunoblotting NE-PER™ Nuclear and Cytoplasmic Extraction Reagents (#78835, ThermoFisher) were used for nuclear and cytoplasmic protein extraction. For Co-IP, cells were lysed using Cell Lysis Buffer (#9803, CST) supplemented with PMSF (#8553, CST), immunoprecipitated using Protein G Magnetic Beads (#7024, CST) and antibodies against HA (#AE008, ABclonal) or p50/p105(#13586, CST) following the manufacture's protocol. For immunoblot, protein extracts were resolved in SDS-PAGE gels and transferred to nitrocellulose membranes. Membranes were blocked by 5% BSA and incubated with the primary antibody at 4° C. overnight followed by incubation with fluorescence conjugated secondary antibody for 1 h at room temperature. Band intensity was collected with the Odyssey® CLx Imaging System and quantified using Image Studio™ Lite.

[2] = test system: oxLDL-induced Il1b and Mmp9 expression in BMDMs; test: Real-time PCR of oxLDL-induced pro-inflammatory genes in BMDMs; type: cell-based, mouse; settings: BMDMs, vs control
Description: FIG. 3. NO2—OA prevents oxLDL-induced NFκB activation and pro-inflammatory cytokine production. Primary BMDMs were pretreated with vehicle, OA (2.5 μM) or NO2—OA (2.5 μM) for 1 h, followed by treatment of oxLDL (50 to 100 μg/ml) for the indicated times. (A, B) Nuclear (A) and cytoplasmic protein (B) fractions were isolated 1 h after oxLDL treatment and subjected to western blot with antibodies against p65, lamin a/c (nuclear marker) and GAPDH (cytosolic marker). Representative western blot images of three independent experiments are shown. (C) Quantification of the p65 nuclear to cytoplasmic ratio by image studio (normalized by the internal control, n=3). (D-F) Following 8 h of oxLDL treatment, levels of IL6, MCP1 and TNFα in the cell medium were measured by ELISA (n=4). (G) Real-time PCR quantification of gene expression levels of IL1b and Mmp9 in total mRNA extracted from the BMDMs. (C) Ordinary one-way ANOVA followed by Tukey's test was performed. As of (D-F), the basal level contains several non-detectable values, so ordinary one-way ANOVA followed by correction of FDR were performed for the oxLDL-treated groups only. Ordinary one-way ANOVA followed by Tukey's test was performed for (G). Data presented as mean±SEM. A p<0.05 for both the main test and post hoc test was considered statistically significant.
Mice suprarenal aortas were collected after the measurement of their diameter. Human aortic aneurysm samples were obtained from the Department of Cardiac Surgery at the University of Michigan. Samples from humans and mice were snap-frozen in liquid nitrogen for later processing. RNA from tissue was extracted using TRIzol (#15596018, Invitrogen). RNA from cells was isolated with the RNeasy Mini Kit (#74106, QIAGEN). SuperScript™ III First-Strand Synthesis System (#18080051, Invitrogen) was used to reverse-transcribe mRNA into cDNA. Gene expression was quantified in triplicates by quantitative real-time PCR (qPCR) using IQ SYBR Green Supermix (#1708882, Bio-Rad) with the indicated gene primers.

[3] = cited from earlier work

effect on the EPRAP/p105 interaction [1]: no significant effect
Compound: CCCCCCCCC(=CCCCCCCCC(=O)O)[N+](=O)[O-] [NO2—OA, 10-nitro-octadec-9-enoic acid]
oxLDL-induced expression of Il1b [2]: significantly decreased
oxLDL-induced expression of Mmp9 [2]: significantly decreased
Nrf2-regulated genes and heat shock response in peripheral blood mononuclear cells ([3]; administration in humans): induces
circulating interleukin 6 (IL6) level ([3]; human volunteers): decreased
circulating monocyte chemoattractant protein 1 (MCP1) level ([3]; human volunteers): decreased
safety in Phase 1 human study ([3]; within a therapeutic window 25-450 mg/day): safe
